Our source for the Kd and IC50 values is doi:10.1101/2023.12.12.571245v1, “Serine hydroxymethyl transferase is a binding target of caprylic acid: Uncovering a novel molecular target for a herbicide and for producing caprylic acid-tolerant crops” (biorxiv, 2023).

The target in test [1] is T1, CcSHMT1 (Erigeron canadensis, UniProt A0A8M0FGR5, V188L).
T1 construct: total CDS (1539 bp)
T1 sequence (A0A8M0FGR5 1-513 V188L): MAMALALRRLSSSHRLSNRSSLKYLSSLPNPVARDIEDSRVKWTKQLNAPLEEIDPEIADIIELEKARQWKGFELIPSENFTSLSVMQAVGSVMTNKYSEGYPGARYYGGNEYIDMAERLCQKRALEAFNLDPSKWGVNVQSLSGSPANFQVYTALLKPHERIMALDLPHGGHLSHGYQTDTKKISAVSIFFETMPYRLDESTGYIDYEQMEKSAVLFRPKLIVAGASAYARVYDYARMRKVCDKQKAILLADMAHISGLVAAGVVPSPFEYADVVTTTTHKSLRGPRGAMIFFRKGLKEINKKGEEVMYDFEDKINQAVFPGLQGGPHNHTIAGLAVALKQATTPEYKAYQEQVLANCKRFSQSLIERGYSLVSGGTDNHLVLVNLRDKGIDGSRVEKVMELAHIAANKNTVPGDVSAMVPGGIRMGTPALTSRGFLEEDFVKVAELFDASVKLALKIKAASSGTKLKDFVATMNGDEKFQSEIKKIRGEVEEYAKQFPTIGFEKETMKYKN
The experiment in a line: microscale thermophoresis (MST). Format: binding.

Test [2] deals with T2, CcSHMT1 (Erigeron canadensis, UniProt A0A8M0FGR5).
T2 construct: total CDS (1539 bp); homology model is a tetramer
T2 sequence (A0A8M0FGR5 1-513): T1 sequence (A0A8M0FGR5 1-513 V188L)
The experiment in a line: microscale thermophoresis (MST). Format: binding. On the technique in general: In MST a laser heats a spot of the sample, and binding alters the fluorescence response.

Test [3] concerns the target T3, CcSHMT1 (Erigeron canadensis, UniProt A0A8M0FGR5, S186A).
T3 construct: total CDS (1539 bp)
T3 sequence (A0A8M0FGR5 1-513 S186A): T1 sequence (A0A8M0FGR5 1-513 V188L)
Kind of test: microscale thermophoresis (MST). The class given is binding.

In test [4] the target is T4, CcSHMT1 (Erigeron canadensis, UniProt A0A8M0FGR5, A187T).
T4 construct: total CDS (1539 bp); homology model is a tetramer
T4 sequence (A0A8M0FGR5 1-513 A187T): T1 sequence (A0A8M0FGR5 1-513 V188L)
The experiment in a line: microscale thermophoresis (MST). Format: binding.

For test [5], the target named is T2, CcSHMT1. The experiment in a line: SHMT activity by benzaldehyde production from DL-β-phenylserine. The note with it: competitive versus DL-β-phenylserine; CAP 0.63-44.23 μM, assayed 0.5 h after CAP addition. The class given is biochemical.

Read-outs that look alike come from different tables or passages of the source.

As usually defined, the IC50 is the concentration that inhibits the measured activity by half. As for `CCCCCCCC(=O)O` [Caprylic acid], the Kd in test [1] is 28 µM; in test [2] (read-out: Kd) it was 12.3 µM; in test [3] it was 15.5 µM; in test [4] it was 51.9 µM. In test [5], the IC50 is 23.1 µM.

Take `COc1cc(C(=O)O)ccc1O` [Vanillic acid, reference compound]: in test [2] (negative control, bound is the highest concentration tested, not a printed Kd, read-out: no binding up to 50 μM), the Kd was over 50 µM.
